# Test results taken from publication PMC10799935, “Discovery of a peripheral 5HT2A antagonist as a clinical candidate for metabolic dysfunction-associated steatohepatitis” (Nature Communications, 2024).
# “And” between values parts separate entries of the source, which are not always exact repeats. Identical values can stand only once.
# Assays:
# α-SMA = assay: CDAHFD mice: α-SMA immunohistochemical staining; type: in vivo, mouse; parameters: α-SMA immunohistochemical staining (a-SMA area), individual mouse / α-SMA immunohistochemical staining (a-SMA area), Average: unit not given here; conditions: for α-SMA immunohistochemical staining (a-SMA area), Average / α-SMA immunohistochemical staining (a-SMA area), individual mouse: CDAHFD mice; for α-SMA immunohistochemical staining (a-SMA area), Average: group average n=5, CDAHFD+Vehicle 6.348, Vehicle 0.808; for α-SMA immunohistochemical staining (a-SMA area), individual mouse: individual animals No. 1-5 (Fig.4f)
# Description: C57BL/6 J male mice were purchased from the Japan SLC. Inc (Hamamatsu, Japan). Mice (5 weeks old) were fed Teklad Certitied Irradiated Global 18% protein rodent diet purchased from Dooyeol Biotech Co. Ltd (Seoul, South Korea) during the acclimation period. The liver fibrosis/inflammation-induced groups were CDAHFD-fed (A06071302, Research diet). […] All animal experiments complied with the relevant ethical regulations.
# Mouse liver tissues were fixed in 4% formalin solution (Sigma–Aldrich, St. Louis, MO, USA) and embedded in paraffin. 4-μm-thick liver sections were deparaffinized in xylene, and rehydrated through descending grades of ethanol. To evaluate liver fibrosis, sections were stained with Sirius red solution and subjected to immunohistochemical staining. Tissue sections, after deparaffinization, underwent a 16-hour incubation in a solution containing 0.1% Direct Red 80 (365548, Sigma-Aldrich) dissolved in Picric acid (P-201, Spectrum Chemical, CA, USA) for Sirius red staining. The sections were briefly immersed in a 0.01 N HCl solution (1129, Ducksan, Republic of Korea) for 2 min. and then rinsed with distilled water for destaining. Subsequently, the sections underwent dehydration through […] grades of ethanol. Immunohistochemical staining was performed using the Polyview Plus HRP-DAB (anti-Rabbit) Kit (ENZ-KIT159-0150, ENZO Life Science, NY, USA) following the manufacturers’ instructions. Deparaffinized sections were boiled in IHC-TekTM Epitope Retrieval solution (IW-1100, IHCWORLD, MD, USA) for 45 min., cooled for 1 h, incubated in a 3% H2O2 solution (69355-0350, JUNSEI, Japan) for 15 min., washed, and then incubated overnight with primary antibodies (α-SMA, ab5694, Abcam, 1:500 dilution; TNF-α, ab6671, Abcam, 1:100 dilution and IL-1β, ab9722, Abcam, 1:100 dilution). Subsequently, the sections were treated with Polyview Plus HRP for 2 h and developed with DAB chromogen/substrate. Stained […] sections were confirmed by light microscopy (Olympus BX53 upright microscope, Tokyo, Japan). The degree of hepatic fibrosis and immunohistochemical staining was quantified by morphometric analysis of stained liver sections using NIH ImageJ software.
# [1] = Hepatocyte stability test, dog; type: in vitro ADME; conditions: male, beagle, cryopreserved hepatocytes, pH 7.4, read-out: Hepatocyte stability (% remaining after 3 h)
# Procedure: Hepatocyte incubations for the test compound (10 μM final concentration, n = 2 per each time point) were carried out in mouse, rat, dog, monkey and human cryopreserved hepatocytes, resuspended at a density of 0.5 million cells/ml of modified Krebs-Henseleit buffer (KHB). The information regarding the hepatocytes used in the experiment is as follows: liverPool® 10-donor mixed gender human (BioIVT, Cat.No. X008001, lot EAV), male cynomolgus monkey (BioIVT, Cat.No. M00305, lot COJ), male Beagle dog (BioIVT, Cat.No. M00205, lot USY), male Sprague Dawley rat (BioIVT, Cat.No. M00005, lot TQE) and male CD1 mouse (BioIVT, Cat.No.005052, lot LFF). In addition, the compound was also incubated with blank KHB. The final concentration of solvent (DMSO) was 0.1% of the final volume. The incubations were performed for 3 hours at 37°C and pH 7.4. Reactions were terminated at 0 and 180 minutes by the addition of 3 volumes of stop solution (acetonitrile/methanol (2:1, v/v) containing internal standard–diclofenac at 100 ng/ml). Samples (compound spiked buffer and compound spiked hepatocytes, as well as blank samples, i.e. hepatocytes with the same DMSO%) were then centrifuged and aliquots were transferred to 96-deep micronic tubes and frozen at -80 °C until LC-MS/MS analysis. […]
# HFD-fed C57BL/6J mice = assay: DIO mice: body composition (fat and lean mass); type: in vivo, mouse; parameters: Body Mass RAW Fluid / Body Mass RAW Fat body mass / Body Mass RAW Lean body mass / Fat Body: Mean Diff., Vehicle vs. 11c / Lean Body: Mean Diff., Vehicle vs. 11c: unit not given here; conditions: for Fat Body: Mean Diff., Vehicle vs. 11c / Lean Body: Mean Diff., Vehicle vs. 11c: Dunnett's test; for Body Mass Analysis (%) Fat body mass / Body Mass Analysis (%) Lean body mass / Body Mass RAW Fat body mass / Body Mass RAW Lean body mass / Body Weight (body mass sheet) / Body Mass Analysis (%) Fluid / Body Mass RAW Fluid: DIO mice, individual mice and group Mean; for Body Weight (body mass sheet): in g (unit assumed)
# Description: For in vivo efficacy in DIO models and CDAHFD models, the experimental protocol for this study was approved by the Institutional Animal Care and Use Committee (IACUC) at the Korea Advanced Institute of Science and Technology (No. KA2023-027-v2) or Kyungpook National University (No. KNU-20200134). All relevant ethical guidelines were followed. C57BL/6 J male mice (11 weeks old) were purchased from the Charles River Japan and were housed in a specific pathogen-free barrier facility under a regular light-dark cycle (12-hour light/12-hour dark) at 24°C with 40–60% humidity. Food (standard chow diet, Envigo, 2018S) and water were provided ad libitum. […] Mice were euthanized by the method of cervical dislocation. The measurement of lean and fat mass in live mice was performed by a body composition analyzer (LF50 BCA-analyzer, Bruker). After 6 h of fasting, mice were sacrificed, and tissue samples were obtained.
# CYP2C19 = CYP2C19 (Homo sapiens, UniProt P33261); assay: in vitro
# physchem = conditions: pH 6.8, aqueous buffer
# Chain of CYP2C19 (P33261 whole entry): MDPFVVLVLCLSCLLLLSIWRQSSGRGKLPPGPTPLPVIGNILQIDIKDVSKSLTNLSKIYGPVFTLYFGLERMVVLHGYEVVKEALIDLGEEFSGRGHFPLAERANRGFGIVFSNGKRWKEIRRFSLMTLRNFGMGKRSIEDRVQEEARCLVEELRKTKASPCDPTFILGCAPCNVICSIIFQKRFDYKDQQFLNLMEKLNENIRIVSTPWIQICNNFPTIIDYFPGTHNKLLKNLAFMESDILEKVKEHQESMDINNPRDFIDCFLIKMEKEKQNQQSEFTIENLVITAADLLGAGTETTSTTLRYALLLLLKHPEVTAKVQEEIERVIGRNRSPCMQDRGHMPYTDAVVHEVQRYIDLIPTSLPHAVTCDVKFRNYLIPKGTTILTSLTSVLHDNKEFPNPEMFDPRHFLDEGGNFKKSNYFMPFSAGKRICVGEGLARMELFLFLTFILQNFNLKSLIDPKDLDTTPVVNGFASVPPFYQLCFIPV
structure (smiles),measurement,setting,value
Cc1nc2n(c(=O)c1CCN1CCC(=C3c4ccc(Cl)cc4CCc4cccnc43)CC1)CCCC2O (stereo not shown) [Compound 11c],"α-SMA immunohistochemical staining (a-SMA area), Average",α-SMA; 11c 5 mpk,2.563
same,"α-SMA immunohistochemical staining (a-SMA area), individual mouse",α-SMA; 11c 5 mpk,2.929 and 2.447 and 3.505 and 2.773 and 1.159
same,"α-SMA immunohistochemical staining (a-SMA area), Average",α-SMA; 11c 10mpk,3.310
same,"α-SMA immunohistochemical staining (a-SMA area), individual mouse",α-SMA; 11c 10mpk,3.665 and 3.079 and 3.824 and 3.446 and 2.538
same,α-SMA expression (immunohistochemical staining),α-SMA; CDAHFD-fed 11c vs CDAHFD-fed vehicle group,significant decrease
same,"remaining at 3 h, 10 μM",[1],88.5%
same,"Fat Body: Mean Diff., Vehicle vs. 11c",HFD-fed C57BL/6J mice; 5mpk,1.897
same,"Lean Body: Mean Diff., Vehicle vs. 11c",HFD-fed C57BL/6J mice; 5mpk,3.43
same,fat mass,"HFD-fed C57BL/6J mice; 10 mpk daily oral gavage, 8 weeks, vs vehicle-treated mice",reduced
same,"Fat Body: Mean Diff., Vehicle vs. 11c",HFD-fed C57BL/6J mice; 10mpk,12.76
same,"Lean Body: Mean Diff., Vehicle vs. 11c",HFD-fed C57BL/6J mice; 10mpk,4.653
same,Body Mass Analysis (%) Fat body mass,"HFD-fed C57BL/6J mice; 5mpk, 5 mg/kg",34.69%
same,Body Mass Analysis (%) Lean body mass,"HFD-fed C57BL/6J mice; 5mpk, 5 mg/kg",52.41%
same,Body Mass Analysis (%) Fat body mass,"HFD-fed C57BL/6J mice; 5mpk, 5 mg/kg, group mean",34.7%
same,Body Mass Analysis (%) Lean body mass,"HFD-fed C57BL/6J mice; 5mpk, 5 mg/kg, group mean",52.4%
same,Body Mass RAW Fat body mass,"HFD-fed C57BL/6J mice; 5mpk, 5 mg/kg, group mean",15.9
same,Body Mass RAW Lean body mass,"HFD-fed C57BL/6J mice; 5mpk, 5 mg/kg, group mean",23.8
same,Body Weight (body mass sheet),"HFD-fed C57BL/6J mice; 5mpk, 5 mg/kg",45.7 and 40.4 and 39.5 and 37 and 43.5 and 51 and 45.4
same,Body Mass Analysis (%) Fluid,"HFD-fed C57BL/6J mice; 5mpk, 5 mg/kg, mean",6.8%
same,Body Mass RAW Fluid,"HFD-fed C57BL/6J mice; 5mpk, 5 mg/kg, mean",3.1
same,Body Mass Analysis (%) Fat body mass,"HFD-fed C57BL/6J mice; 5mpk, listed as 11C, 5 mg/kg",42.9% and 30.1% and 27.5% and 28.0% and 34.3% and 39.1% and 41.1%
same,Body Mass Analysis (%) Fluid,"HFD-fed C57BL/6J mice; 5mpk, listed as 11C, 5 mg/kg",7.2% and 5.5% and 5.6% and 5.7% and 8.1% and 8.2% and 7.4%
same,Body Mass Analysis (%) Lean body mass,"HFD-fed C57BL/6J mice; 5mpk, listed as 11C, 5 mg/kg",50.9% and 41.8% and 44.8% and 51.8% and 63.0% and 63.1% and 51.4%
same,Body Mass RAW Fat body mass,"HFD-fed C57BL/6J mice; 5mpk, listed as 11C, 5 mg/kg",19.5 and 15.6 and 13.7 and 11.6 and 14.0 and 17.9 and 18.8
same,Body Mass RAW Fluid,"HFD-fed C57BL/6J mice; 5mpk, listed as 11C, 5 mg/kg",3.3 and 2.8 and 2.4 and 3.7 and 3.4
same,Body Mass RAW Lean body mass,"HFD-fed C57BL/6J mice; 5mpk, listed as 11C, 5 mg/kg",23.2 and 21.7 and 22.3 and 21.5 and 25.8 and 28.9 and 23.5
same,Body Mass Analysis (%) Fluid,"HFD-fed C57BL/6J mice; 10mpk, 10 mg/kg",7.1% and 5.8% and 4.8% and 8.2% and 9.4%
same,Body Mass RAW Fat body mass,"HFD-fed C57BL/6J mice; 10mpk, 10 mg/kg",8.4 and 13.9 and 12.4 and 15.4 and 9.5 and 5.7
same,Body Mass RAW Fluid,"HFD-fed C57BL/6J mice; 10mpk, 10 mg/kg",3.2 and 3.0 and 2.4 and 3.4 and 3.9 and 2.2
same,Body Mass RAW Lean body mass,"HFD-fed C57BL/6J mice; 10mpk, 10 mg/kg",22.2 and 25.2 and 20.6 and 25.5 and 23.2 and 23.1
same,Body Mass RAW Lean body mass,"HFD-fed C57BL/6J mice; 10mpk, 10 mg/kg, group mean",23.3
same,Body Weight (body mass sheet),"HFD-fed C57BL/6J mice; 10mpk, 10 mg/kg",35.7 and 43.1 and 36.3 and 45.2 and 38.2 and 33.4
same,Body Weight (body mass sheet),"HFD-fed C57BL/6J mice; 10mpk, 10 mg/kg, mean",38.7
same,Body Mass Analysis (%) Fluid,"HFD-fed C57BL/6J mice; 10mpk, 10 mg/kg, mean",6.7%
same,Body Mass RAW Fat body mass,"HFD-fed C57BL/6J mice; 10mpk, 10 mg/kg, mean",10.9
same,inhibition at 10 µM,CYP2C19,6.83%
same,solubility,physchem,1300 µg/mL
